Here are results for 14 molecules from patent US7294640B2, “Mitotic kinesin inhibitors” (Merck & Co., Inc., priority 2004, dated 2007).

As usually defined, the pIC50 is the IC50 on a negative log10 scale, so that one unit is a factor of ten. Higher therefore signals a low IC50.

Each structure is given as a SMILES string. pIC50: −log10 of the molar value.

T1 sequence (Q99661 258-588 limits assumed): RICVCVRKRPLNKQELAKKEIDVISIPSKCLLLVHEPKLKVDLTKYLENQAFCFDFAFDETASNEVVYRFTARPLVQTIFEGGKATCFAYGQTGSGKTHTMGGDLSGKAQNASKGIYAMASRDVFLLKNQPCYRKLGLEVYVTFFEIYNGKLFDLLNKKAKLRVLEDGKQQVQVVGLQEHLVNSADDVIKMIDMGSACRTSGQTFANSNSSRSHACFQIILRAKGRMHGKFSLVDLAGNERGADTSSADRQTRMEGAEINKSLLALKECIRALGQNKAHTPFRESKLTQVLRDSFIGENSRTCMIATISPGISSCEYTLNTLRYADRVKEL

The test addresses T1, GST-MCAK fusion protein (Homo sapiens, UniProt Q99661).
T1 construct: The GST-MCAK fusion protein was purchased Cytoskeleton (cat. #MK01); fused on or other part: GST tag (N-terminal, by the vendor's product)
In words: MCAK ATPase in vitro assay. It counts as biochemical. Conditions: GST-MCAK 100 nM, 1 mM sodium ATP, 2 μM microtubules, RT 50 min, 5% DMSO. The method, then:
V. MCAK ATPase in Vitro Assay
Reagents: The GST-MCAK fusion protein was purchased Cytoskeleton (cat. #MK01). Tubulin from bovine brain was purchased from Cytoskeleton (HTS-grade), BSA from Sigma (cat. # 3059). chloramphenicol from Boehringer Mannheim (cat. # 634433), ampicillin from Fisher Biotech (cat. # BP1760-25) and Paclitaxel from Cytoskeleton (cat. # TXD01)
Microtubule preparation: For the preparation of microtubules, purified tubulin (>97% MAP-free) at 1 mg/ml was polymerized at 37° C. in the presence of 10 μM paclitaxel, 1 mM DTT, 1 mM GTP in BRB80 buffer (80 mM K-PIPES, 1 mM EGTA, 1 mM MgCl2 at pH 6.8). The resulting microtubules were separated from non-polymerized tubulin by ultracentrifugation and removal of the supernatant. The pellet, containing the microtubules, was gently resuspended in 1×BRB 80 containing 10 μM paclitaxel, 1 mM DTT, 50 μg/ml ampicillin, 5 μg/ml chloramphenicol in BRB80.
MCAK ATPase assay: GST-MCAK at 100 nM was incubated with 1 mM sodium ATP, 2 μM microtubules with 2 μM paclitaxel (concentration refers to tubulin dimers), and inhibitor at RT for 50 min in reaction buffer (80 mM K-PIPES, 1 mM K-EGTA, 2 mM MgCl2, 1 mM DTT, and 100 μg/ml BSA, pH 6.9). Compounds were dissolved in DMSO, and the final DMSO concentration in the reaction was 5%. The reaction was terminated with a 2-fold dilution of the reaction with 2× stop buffer (50 mM EDTA/1.8 M KCl). The free phosphate from the ATP hydrolysis reaction was measured via a quinaldine red/ammonium molybdate assay by adding 1.5 volumes of quench C within 24 hrs of addition of stop buffer. (Cogan, E. B., Birrell, G. B., Griffith, O. H. (1999) Analytical Biochemistry 271, p 29). Quench C was prepared by adding 1 volume of quench B (12.3 mM ammonium molybdate tetrahydrate in 1.15 M sulfuric acid) to 2 volumes of quench A (0.1 mg/ml quinaldine red, 0.14% polyvinyl alcohol). The plate was incubated for 5 min at room temperature, and the absorbance of the phosphomolybdate complex was measured at 540 nm.
On to `Oc1cccc(-c2csc(C3(c4ccccc4)CC3)n2)c1` [Compound 3-5, 3-[2-(1-phenylcyclopropyl)-1,3-thiazol-4-yl]phenol], for which the pIC50 was no less than 4.30.
Next, `Oc1ccc(-c2csc(C3(c4ccccc4)CC3)n2)cc1O` [Compound 3-2, 4-(3,4-dihydroxyphenyl)-2-(1-phenylcyclopropyl)-1,3-thiazole]: no less than 4.30.
The figure for `Oc1cnccc1-c1csc(C2(c3ccccc3)CC2)n1` [Compound 3-3, 4-[2-(1-phenylcyclopropyl)-1,3-thiazol-4-yl]pyridin-3-ol] is no less than 4.30; for `c1ccc(C2(c3nc(-c4cccnc4)cs3)CC2)cc1` [Compound 1-10, 3-[2-(1-phenylcyclopropyl)-1,3-thiazol-4-yl]pyridine] it is no less than 4.30; for `OCc1cccc(-c2csc(C3(c4ccccc4)CC3)n2)c1` [Compound 5-1, {3-[2-(1-phenylcyclopropyl)-1,3-thiazol-4-yl]phenyl}methanol] it is no less than 4.30.
The figure for `N#Cc1ccc(-c2csc(C3(c4c(F)cccc4F)CC3)n2)cc1` [Compound 1-15, 4-{2-[1-(2,6-difluorophenyl)cyclopropyl]-1,3-thiazol-4-yl}benzonitrile] is no less than 4.30.
With `N#Cc1ccc(-c2csc(C3(c4ccccc4)CC3)n2)cn1` [Compound 2-2, 5-[2-(1-phenylcyclopropyl)-1,3-thiazol-4-yl]pyridine-2-carbonitrile], the pIC50 was no less than 4.30.
`Oc1ccc(-c2csc(C3(c4ccccc4)CC3)n2)cc1` [Compound 3-4, 4-[2-(1-phenylcyclopropyl)-1,3-thiazol-4-yl]phenol] showed a negative-log IC50 (pIC50) of no less than 4.30.
For `Cc1cccc(C2(c3nc(-c4ccncc4)cs3)CC2)c1` [Compound 9-14, 4-{2-[1-(3-methylphenyl)cyclopropyl]-1,3-thiazol-4-yl}pyridine], the pIC50 was no less than 4.30.
`[O-][n+]1ccc(-c2csc(C3(c4ccccc4)CC3)n2)cc1` [Compound 2-3, 4-[2-(1-phenylcyclopropyl)-1,3-thiazol-4-yl]-1lambda~5~pyridin-1-ol]: the negative-log IC50 (pIC50) is no less than 4.30.
Next, `Clc1cc(-c2csc(C3(c4ccccc4)CC3)n2)ccn1` [Compound 9-13, 2-chloro-4-[2-(1-phenylcyclopropyl)-1,3-thiazol-4-yl]pyridine]: no less than 4.30.
`Clc1cccc(C2(c3nc(-c4ccncc4)cs3)CC2)c1` [Compound 9-10, 4-{2-[1-(3-chlorophenyl)cyclopropyl]-1,3-thiazol-4-yl}pyridine] showed a negative logarithm of the IC50 (pIC50) of no less than 4.30.
Next, `CC(c1ccccc1)c1nc(-c2ccc([N+](=O)[O-])cc2)cs1` (centres unmarked) [Compound 1-5, 4-(4-nitrophenyl)-2-(1-phenylethyl)-1,3-thiazole]: no less than 4.30.
`Fc1ccccc1C1(c2nc(-c3ccncc3)cs2)CC1` [Compound 9-11, 4-{2-[1-(2-fluorophenyl)cyclopropyl]-1,3-thiazol-4-yl}pyridine] showed a pIC50 of no less than 4.30.
